The values below come from ChEMBL document CHEMBL5291721, “A preclinical secondary pharmacology resource illuminates target-adverse drug reaction associations of marketed drugs” (Nat Commun, 2023).

Test [1] addresses T1, Alpha-2A adrenergic receptor (Homo sapiens, UniProt P08913).
T1 sequence (P08913 whole entry): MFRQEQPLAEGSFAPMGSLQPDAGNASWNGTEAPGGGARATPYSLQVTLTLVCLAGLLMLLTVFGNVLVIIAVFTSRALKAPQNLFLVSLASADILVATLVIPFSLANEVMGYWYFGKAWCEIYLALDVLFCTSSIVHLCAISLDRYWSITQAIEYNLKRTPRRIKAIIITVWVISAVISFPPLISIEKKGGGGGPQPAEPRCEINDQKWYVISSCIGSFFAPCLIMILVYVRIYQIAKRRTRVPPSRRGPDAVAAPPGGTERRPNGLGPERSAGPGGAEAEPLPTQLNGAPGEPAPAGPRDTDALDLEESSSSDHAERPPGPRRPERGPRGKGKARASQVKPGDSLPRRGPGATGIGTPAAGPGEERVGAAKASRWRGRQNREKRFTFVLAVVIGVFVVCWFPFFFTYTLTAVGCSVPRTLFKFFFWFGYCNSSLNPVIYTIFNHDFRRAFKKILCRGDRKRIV

In test [2] the target is T2, Peroxisome proliferator-activated receptor gamma (Homo sapiens, UniProt P37231).
T2 sequence (P37231 whole entry): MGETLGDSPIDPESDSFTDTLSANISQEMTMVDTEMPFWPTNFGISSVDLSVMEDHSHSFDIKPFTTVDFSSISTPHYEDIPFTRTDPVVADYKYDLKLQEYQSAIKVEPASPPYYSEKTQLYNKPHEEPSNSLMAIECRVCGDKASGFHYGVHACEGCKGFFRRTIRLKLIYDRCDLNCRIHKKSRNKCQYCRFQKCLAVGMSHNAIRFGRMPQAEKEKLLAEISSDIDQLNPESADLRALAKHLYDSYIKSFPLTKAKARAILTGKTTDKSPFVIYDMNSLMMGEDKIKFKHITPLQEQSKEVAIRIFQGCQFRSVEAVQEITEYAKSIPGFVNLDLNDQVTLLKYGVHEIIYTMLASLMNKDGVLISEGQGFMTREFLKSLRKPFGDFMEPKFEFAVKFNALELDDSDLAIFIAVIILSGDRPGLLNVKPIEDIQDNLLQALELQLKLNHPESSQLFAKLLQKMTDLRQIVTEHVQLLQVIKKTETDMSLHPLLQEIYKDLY
The test is classed as functional.

Test [3] has as its target T2, Peroxisome proliferator-activated receptor gamma. The test is classed as functional. The source holds these as a separate data set.
Test [4] concerns the target Sodium channel protein type 5 subunit alpha (Homo sapiens, UniProt Q14524). The test is classed as functional, cell-based.
The target of test [5] is Gamma-aminobutyric acid receptor subunit alpha-1/alpha-2/beta-2/gamma-2 (Homo sapiens, UniProt P14867+P18507+P47869+P47870). The test is classed as functional, cell-based.
Chain of Gamma-aminobutyric acid receptor subunit alpha-1/alpha-2/beta-2/gamma-2 (P14867 whole entry): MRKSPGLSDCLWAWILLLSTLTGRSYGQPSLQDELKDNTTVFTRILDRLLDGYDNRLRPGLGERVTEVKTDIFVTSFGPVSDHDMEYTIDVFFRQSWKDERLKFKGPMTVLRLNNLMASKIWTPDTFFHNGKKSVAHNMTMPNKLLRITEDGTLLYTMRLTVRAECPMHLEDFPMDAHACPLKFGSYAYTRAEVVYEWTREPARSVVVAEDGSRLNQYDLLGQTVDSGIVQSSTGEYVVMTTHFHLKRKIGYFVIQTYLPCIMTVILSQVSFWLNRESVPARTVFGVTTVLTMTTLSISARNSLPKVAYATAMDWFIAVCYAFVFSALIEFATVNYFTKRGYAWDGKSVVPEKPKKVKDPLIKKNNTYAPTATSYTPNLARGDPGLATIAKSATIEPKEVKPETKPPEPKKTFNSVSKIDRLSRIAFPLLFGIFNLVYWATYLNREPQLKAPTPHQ
Chain of Gamma-aminobutyric acid receptor subunit alpha-1/alpha-2/beta-2/gamma-2 (P47870 whole entry): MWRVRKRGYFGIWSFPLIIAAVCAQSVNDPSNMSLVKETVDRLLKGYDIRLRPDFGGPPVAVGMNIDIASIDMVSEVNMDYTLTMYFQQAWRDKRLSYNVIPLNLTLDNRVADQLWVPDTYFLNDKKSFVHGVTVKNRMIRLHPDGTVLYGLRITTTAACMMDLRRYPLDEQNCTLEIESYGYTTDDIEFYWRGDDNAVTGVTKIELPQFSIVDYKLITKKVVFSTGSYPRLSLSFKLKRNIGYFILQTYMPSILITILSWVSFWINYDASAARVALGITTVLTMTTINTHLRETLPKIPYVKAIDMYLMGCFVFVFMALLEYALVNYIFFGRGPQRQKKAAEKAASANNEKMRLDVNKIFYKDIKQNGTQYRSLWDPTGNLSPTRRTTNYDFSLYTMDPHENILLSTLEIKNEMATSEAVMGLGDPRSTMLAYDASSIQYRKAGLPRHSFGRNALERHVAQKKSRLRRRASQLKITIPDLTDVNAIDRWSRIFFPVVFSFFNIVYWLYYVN
Chain of Gamma-aminobutyric acid receptor subunit alpha-1/alpha-2/beta-2/gamma-2 (P18507 whole entry): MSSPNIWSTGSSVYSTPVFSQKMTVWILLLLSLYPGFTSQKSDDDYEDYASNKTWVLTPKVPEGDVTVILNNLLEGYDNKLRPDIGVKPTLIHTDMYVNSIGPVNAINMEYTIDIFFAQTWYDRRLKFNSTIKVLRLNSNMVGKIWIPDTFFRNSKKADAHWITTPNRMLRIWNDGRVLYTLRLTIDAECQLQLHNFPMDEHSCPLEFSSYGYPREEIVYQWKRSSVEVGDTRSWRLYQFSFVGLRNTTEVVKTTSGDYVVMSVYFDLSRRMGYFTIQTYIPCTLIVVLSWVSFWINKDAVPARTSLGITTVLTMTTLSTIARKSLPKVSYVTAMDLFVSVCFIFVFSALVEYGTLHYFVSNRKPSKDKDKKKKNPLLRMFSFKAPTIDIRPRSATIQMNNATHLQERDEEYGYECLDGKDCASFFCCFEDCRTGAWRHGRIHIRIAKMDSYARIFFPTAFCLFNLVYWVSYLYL
Chain of Gamma-aminobutyric acid receptor subunit alpha-1/alpha-2/beta-2/gamma-2 (P47869 whole entry): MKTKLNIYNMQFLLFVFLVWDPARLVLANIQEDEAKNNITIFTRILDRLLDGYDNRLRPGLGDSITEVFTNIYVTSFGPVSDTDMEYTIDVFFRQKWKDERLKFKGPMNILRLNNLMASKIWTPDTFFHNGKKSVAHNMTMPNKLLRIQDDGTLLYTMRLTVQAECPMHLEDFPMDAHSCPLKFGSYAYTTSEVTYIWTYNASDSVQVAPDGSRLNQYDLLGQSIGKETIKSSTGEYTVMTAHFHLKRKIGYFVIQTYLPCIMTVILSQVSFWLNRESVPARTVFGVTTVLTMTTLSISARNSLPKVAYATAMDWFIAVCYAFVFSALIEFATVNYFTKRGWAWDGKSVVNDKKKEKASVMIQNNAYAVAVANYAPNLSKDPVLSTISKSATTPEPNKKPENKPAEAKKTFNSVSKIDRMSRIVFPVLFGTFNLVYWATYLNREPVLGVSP
Test [6] has as its target Neurotensin receptor type 1 (Homo sapiens, UniProt P30989).
The next test concerns the target Glucagon receptor (Homo sapiens, UniProt P47871).
The target of test [7] is Voltage-dependent N-type calcium channel subunit alpha-1B (Rattus norvegicus, UniProt Q02294). The test is classed as functional.
In the next test the target is D(1A) dopamine receptor (Homo sapiens, UniProt P21728).
Chain of D(1A) dopamine receptor (P21728 whole entry): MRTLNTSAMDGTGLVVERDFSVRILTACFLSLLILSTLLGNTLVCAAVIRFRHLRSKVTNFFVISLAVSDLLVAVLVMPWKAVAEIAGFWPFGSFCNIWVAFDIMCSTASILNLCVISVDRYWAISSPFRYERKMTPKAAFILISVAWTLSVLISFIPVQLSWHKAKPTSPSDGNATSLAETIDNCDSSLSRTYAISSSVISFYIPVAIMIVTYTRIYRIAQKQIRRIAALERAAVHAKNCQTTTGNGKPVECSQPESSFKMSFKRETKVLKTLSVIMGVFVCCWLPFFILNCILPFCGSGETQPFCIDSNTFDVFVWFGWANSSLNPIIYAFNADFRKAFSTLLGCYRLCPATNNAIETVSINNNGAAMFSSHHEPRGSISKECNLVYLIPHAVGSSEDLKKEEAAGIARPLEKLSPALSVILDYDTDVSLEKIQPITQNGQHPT
The target of test [8] is T3, Corticotropin-releasing factor receptor 1 (Homo sapiens, UniProt P34998).
T3 sequence (P34998 whole entry): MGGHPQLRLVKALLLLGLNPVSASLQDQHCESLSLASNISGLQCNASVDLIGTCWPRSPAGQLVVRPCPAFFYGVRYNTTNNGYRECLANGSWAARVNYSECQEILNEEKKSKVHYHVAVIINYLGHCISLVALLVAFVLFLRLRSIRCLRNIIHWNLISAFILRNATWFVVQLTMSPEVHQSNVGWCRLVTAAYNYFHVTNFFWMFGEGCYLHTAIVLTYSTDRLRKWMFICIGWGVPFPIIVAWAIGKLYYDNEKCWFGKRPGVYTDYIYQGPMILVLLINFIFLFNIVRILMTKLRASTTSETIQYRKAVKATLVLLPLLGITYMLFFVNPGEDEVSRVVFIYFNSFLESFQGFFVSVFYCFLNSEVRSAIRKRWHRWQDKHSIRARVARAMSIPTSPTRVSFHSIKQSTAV

The target in the next test is Histamine H1 receptor (Homo sapiens, UniProt P35367). The test is classed as functional, cell-based.
Chain of Histamine H1 receptor (P35367 whole entry): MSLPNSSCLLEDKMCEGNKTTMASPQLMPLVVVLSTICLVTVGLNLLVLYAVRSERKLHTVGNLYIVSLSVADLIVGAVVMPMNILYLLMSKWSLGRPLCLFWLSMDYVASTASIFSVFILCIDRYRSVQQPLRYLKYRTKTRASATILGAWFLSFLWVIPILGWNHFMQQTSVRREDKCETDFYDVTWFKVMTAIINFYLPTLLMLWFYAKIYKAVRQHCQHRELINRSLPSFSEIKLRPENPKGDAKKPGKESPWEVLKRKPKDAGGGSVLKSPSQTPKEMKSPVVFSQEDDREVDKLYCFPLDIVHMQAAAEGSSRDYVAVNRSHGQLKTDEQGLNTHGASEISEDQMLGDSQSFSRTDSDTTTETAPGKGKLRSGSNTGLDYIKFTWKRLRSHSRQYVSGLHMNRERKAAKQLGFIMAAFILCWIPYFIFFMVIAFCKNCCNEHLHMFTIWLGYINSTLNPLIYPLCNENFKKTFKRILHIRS
A further test concerns the target T4, D(4) dopamine receptor (Homo sapiens, UniProt P21917).
T4 sequence (P21917 whole entry): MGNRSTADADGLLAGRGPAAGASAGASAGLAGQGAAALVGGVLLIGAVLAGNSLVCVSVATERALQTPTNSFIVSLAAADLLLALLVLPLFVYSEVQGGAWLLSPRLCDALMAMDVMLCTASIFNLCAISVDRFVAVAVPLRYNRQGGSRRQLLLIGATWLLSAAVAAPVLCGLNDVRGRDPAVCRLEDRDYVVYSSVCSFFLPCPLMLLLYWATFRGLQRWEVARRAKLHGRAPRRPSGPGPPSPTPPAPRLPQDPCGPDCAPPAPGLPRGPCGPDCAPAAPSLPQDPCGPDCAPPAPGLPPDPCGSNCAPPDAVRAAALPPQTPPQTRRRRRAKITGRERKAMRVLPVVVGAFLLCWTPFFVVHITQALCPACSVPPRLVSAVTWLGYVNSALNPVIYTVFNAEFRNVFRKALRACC

Test [9] concerns the target 5-hydroxytryptamine receptor 6 (Homo sapiens, UniProt P50406).
The target in test [10] is 5-hydroxytryptamine receptor 2B (Homo sapiens, UniProt P41595).
Chain of 5-hydroxytryptamine receptor 2B (P41595 whole entry): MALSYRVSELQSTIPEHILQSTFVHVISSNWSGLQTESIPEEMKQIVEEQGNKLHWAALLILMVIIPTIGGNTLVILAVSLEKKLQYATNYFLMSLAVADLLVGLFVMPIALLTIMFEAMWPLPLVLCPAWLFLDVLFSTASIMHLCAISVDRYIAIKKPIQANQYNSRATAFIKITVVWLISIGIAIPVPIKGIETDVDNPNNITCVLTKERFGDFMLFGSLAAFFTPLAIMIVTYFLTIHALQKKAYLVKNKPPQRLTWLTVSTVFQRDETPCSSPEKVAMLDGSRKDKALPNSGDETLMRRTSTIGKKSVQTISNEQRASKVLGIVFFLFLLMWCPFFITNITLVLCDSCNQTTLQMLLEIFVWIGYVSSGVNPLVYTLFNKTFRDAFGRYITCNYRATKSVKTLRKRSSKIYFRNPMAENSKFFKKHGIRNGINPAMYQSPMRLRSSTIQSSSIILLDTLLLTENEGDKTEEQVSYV
Note: assay procedure not described here.

Chain of Neurotensin receptor type 1 (P30989 whole entry): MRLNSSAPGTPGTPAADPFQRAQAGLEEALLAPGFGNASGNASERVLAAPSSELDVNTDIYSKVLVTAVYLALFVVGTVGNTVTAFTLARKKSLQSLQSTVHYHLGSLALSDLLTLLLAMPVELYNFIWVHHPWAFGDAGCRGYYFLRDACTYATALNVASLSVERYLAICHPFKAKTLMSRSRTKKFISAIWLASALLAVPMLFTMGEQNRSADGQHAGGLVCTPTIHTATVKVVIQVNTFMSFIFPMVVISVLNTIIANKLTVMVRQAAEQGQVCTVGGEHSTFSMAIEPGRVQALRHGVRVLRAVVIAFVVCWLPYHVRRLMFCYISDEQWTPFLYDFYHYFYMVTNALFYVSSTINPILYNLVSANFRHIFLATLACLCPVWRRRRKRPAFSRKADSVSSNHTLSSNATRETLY
Chain of Glucagon receptor (P47871 whole entry): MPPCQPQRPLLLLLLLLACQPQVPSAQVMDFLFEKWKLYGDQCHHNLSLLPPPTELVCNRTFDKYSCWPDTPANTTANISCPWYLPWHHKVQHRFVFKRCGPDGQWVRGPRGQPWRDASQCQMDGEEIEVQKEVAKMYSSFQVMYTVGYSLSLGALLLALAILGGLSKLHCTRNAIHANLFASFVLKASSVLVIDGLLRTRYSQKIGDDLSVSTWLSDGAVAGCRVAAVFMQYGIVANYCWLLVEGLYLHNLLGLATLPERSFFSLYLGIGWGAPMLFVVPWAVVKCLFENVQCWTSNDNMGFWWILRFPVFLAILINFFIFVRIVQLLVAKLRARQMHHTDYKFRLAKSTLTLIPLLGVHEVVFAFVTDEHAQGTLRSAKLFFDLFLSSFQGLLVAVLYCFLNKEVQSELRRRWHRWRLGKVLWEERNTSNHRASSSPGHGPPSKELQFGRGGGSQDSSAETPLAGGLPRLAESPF
Chain of 5-hydroxytryptamine receptor 6 (P50406 whole entry): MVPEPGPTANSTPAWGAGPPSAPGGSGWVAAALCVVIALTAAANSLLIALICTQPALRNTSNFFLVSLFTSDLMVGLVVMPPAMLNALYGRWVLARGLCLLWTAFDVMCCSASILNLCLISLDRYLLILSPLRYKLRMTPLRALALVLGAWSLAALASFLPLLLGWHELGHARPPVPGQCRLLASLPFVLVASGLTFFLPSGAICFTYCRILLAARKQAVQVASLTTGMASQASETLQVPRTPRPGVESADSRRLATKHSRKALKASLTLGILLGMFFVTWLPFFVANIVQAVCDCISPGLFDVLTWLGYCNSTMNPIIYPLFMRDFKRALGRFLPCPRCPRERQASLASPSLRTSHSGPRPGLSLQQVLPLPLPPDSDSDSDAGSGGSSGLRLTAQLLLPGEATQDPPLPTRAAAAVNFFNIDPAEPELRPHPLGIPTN

Turning to `Cc1cc(=O)n(-c2ccccc2)n1C` [ANTIPYRINE], the AC50 in test [1] is greater than 10 µM.

Regarding `NS(=O)(=O)c1cc2c(cc1Cl)N=C(CSCc1ccccc1)NS2(=O)=O` [BENZTHIAZIDE], the activity in test [1] was half-maximal at 2.48 µM (AC50).

`CO/N=C(\C(=O)N[C@@H]1C(=O)N2C(C(=O)O)=CCS[C@H]12)c1csc(N)n1` [CEFTIZOXIME]: the AC50 in test [2] and in test [3] was greater than 30 µM in each case.

With `CO/N=C(\C(=O)N[C@@H]1C(=O)N2C(C(=O)O)=C(CSc3nc(=O)c(=O)[nH]n3C)CS[C@H]12)c1csc(N)n1` [CEFTRIAXONE], the AC50 in test [2] was greater than 30 µM; in test [3], 1.4 µM; in [4], greater than 50 µM; in test [5], greater than 30 µM.

For `COc1cc(N)c(Cl)cc1C(=O)NC1CCN(CCCOc2ccc(F)cc2)CC1OC` (centres undefined) [CISAPRIDE], the AC50 in test [6] was greater than 30 µM; at Glucagon receptor it was greater than 30 µM; in [7], greater than 10 µM; at D(1A) dopamine receptor, greater than 10 µM; in test [4] it was greater than 50 µM; in [8] it was greater than 30 µM.

Regarding `CC(CN(C)C)C(C)(O)Cc1ccc(Cl)cc1` (centres undefined) [CLOBUTINOL], at Histamine H1 receptor, the AC50 was greater than 30 µM.

As to `CCOC(=O)C(C)(C)Oc1ccc(Cl)cc1` [CLOFIBRATE], the AC50 in test [2] was greater than 30 µM; in test [6], greater than 30 µM; at Glucagon receptor, greater than 30 µM; in [7] it was greater than 10 µM; in test [3] it was greater than 30 µM; on D(1A) dopamine receptor, greater than 10 µM. The same compound showed an AC50 in test [8] greater than 30 µM.

On to `CC(C)NC[C@H](O)COc1ccc(CC(N)=O)cc1` [ESATENOLOL], for which the AC50 on D(4) dopamine receptor was greater than 10 µM; in test [6], greater than 30 µM; in [1], greater than 10 µM; at Glucagon receptor, greater than 30 µM; in test [7], greater than 10 µM; in test [9], greater than 10 µM. The AC50 in test [8] is greater than 30 µM.

Regarding `NNC(=O)c1ccncc1` [ISONIAZID], the AC50 was greater than 10 µM in test [10]; greater than 10 µM at D(4) dopamine receptor; greater than 30 µM in test [6]; greater than 10 µM in test [1]; greater than 30 µM at Glucagon receptor; greater than 10 µM in test [7]. For the same compound, the AC50 on D(1A) dopamine receptor is greater than 10 µM; in test [9], greater than 10 µM; in test [8], greater than 30 µM.

For the compound `COc1ccc(CN2CCN(C(c3ccc(F)cc3)c3ccc(F)cc3)CC2)c(OC)c1OC` [LOMERIZINE], in [4], half-maximal activity (AC50) was put at 16 µM.

In the case of `O=C1Nc2ccc(Cl)cc2C(c2ccccc2Cl)=NC1O` (centres undefined) [LORAZEPAM], the AC50 was greater than 10 µM in test [10]; greater than 10 µM at D(4) dopamine receptor; greater than 30 µM in test [6]; greater than 10 µM in [1]; greater than 30 µM on Glucagon receptor; greater than 10 µM in test [7]. In addition, the AC50 is greater than 10 µM at D(1A) dopamine receptor and greater than 30 µM in test [8].

In the case of `O=C(NCCO[N+](=O)[O-])c1cccnc1` [NICORANDIL], the half-maximal activity concentration (AC50) (on Histamine H1 receptor; in [5]) was greater than 30 µM each time.

Compound `CO[C@H]1C[C@H](O[C@H]2CC[C@@]3(C)[C@H](CC[C@@H]4[C@@H]3CC[C@]3(C)[C@@H](C5=CC(=O)OC5)[C@@H](OC(C)=O)C[C@]43O)C2)O[C@@H](C)[C@@H]1O` [OLEANDRIN] gave an AC50 in [5] greater than 30 µM.

With `O=c1[nH]c2ccccc2n1CCCN1CCN(C(c2ccccc2)c2ccccc2)CC1` [OXATOMIDE], the AC50 at Histamine H1 receptor was 0.69 µM; in test [5], greater than 30 µM.

Turning to `COc1cc2[nH]c(C)c(CCN3CCN(c4ccccc4)CC3)c2cc1OC` [OXYPERTINE], the AC50 on Histamine H1 receptor was 0.645 µM; in test [5] it was greater than 30 µM.

On to `c1ccc(C2(N3CCCCC3)CCCCC2)cc1` [PHENCYCLIDINE], for which the AC50 in test [5] is greater than 30 µM.

In the case of `COc1cc(C(=O)OCc2cccc(COC(=O)c3cc(OC)c(OC)c(OC)c3)n2)cc(OC)c1OC` [PIROZADIL], the AC50 (on Histamine H1 receptor; in test [5]) was greater than 30 µM throughout.

Compound `CCC(NC(C)C)C(O)c1ccc(O)c2[nH]c(=O)ccc12` (centres undefined) [PROCATEROL] yielded an AC50 at D(1A) dopamine receptor greater than 30 µM.

For `CCC(=O)O[C@](Cc1ccccc1)(c1ccccc1)[C@H](C)CN(C)C` [PROPOXYPHENE], the AC50 in [10] was greater than 10 µM; at D(4) dopamine receptor, greater than 10 µM; in test [6], greater than 30 µM; in test [1], greater than 10 µM; at Glucagon receptor it was greater than 30 µM; in test [7], greater than 10 µM. For the same compound, the AC50 at D(1A) dopamine receptor was greater than 10 µM; in test [8], greater than 30 µM.

For the compound `CCc1nc(N)nc(N)c1-c1ccc(Cl)cc1` [PYRIMETHAMINE], the AC50 in test [10] and in [1] was greater than 10 µM in each case.

For the compound `O=c1c(O)c(-c2ccc(O)c(O)c2)oc2cc(O)cc(O)c12` [QUERCETIN], the AC50 was 19.4 µM in test [10]; greater than 30 µM in test [6]; greater than 10 µM in [1]; greater than 30 µM at Glucagon receptor; greater than 10 µM in test [7]; greater than 10 µM at D(1A) dopamine receptor. In test [8], the AC50 is greater than 30 µM.

As for `CCN1CCCC1CNC(=O)c1cc(S(=O)(=O)CC)ccc1OC` (centres undefined) [SULTOPRIDE], the AC50 (at Histamine H1 receptor; in [5]) was greater than 30 µM in each case.

`C=CCN1CCc2nc(N)sc2CC1` [TALIPEXOLE] came in with an AC50 in [1] of 0.98 µM.

Regarding `CCOC(=O)c1ccc(C#Cc2ccc3c(c2)C(C)(C)CCS3)nc1` [TAZAROTENE], in test [7], the AC50 was greater than 10 µM.

Regarding `CCOC(=O)[C@@H](N)Cc1ccc(-c2cc(O[C@H](c3ccc(Cl)cc3-n3ccc(C)n3)C(F)(F)F)nc(N)n2)cc1` [TELOTRISTAT ETHYL], the AC50 was greater than 30 µM in [2], greater than 30 µM in test [3], greater than 1 µM in test [4] and greater than 30 µM in test [5].

`CCCCCCCC(=O)CC[C@@H]1[C@@H](C/C=C\CCCC(=O)OC(C)C)[C@@H](O)C[C@H]1O` [UNOPROSTONE ISOPROPYL] showed an AC50 in test [4] of 27 µM.
